Test results: US6630124B1, “Combination therapy with VIP antagonist” (Ramot-University Authority for Applied Research and …, priority 1998, dated 2003)
Where a SMILES comes first, the peptide text is derived from it. [ ]: non-standard residue; d: D form. The star is where a group is joined. Stearoyl = CCCCCCCCCCCCCCCCCC(=O)*; Nle = CCCC[C@H](N)C(=O)O

Key:
Assay type in all cases: cell-based
[1] = test system: VIP receptor (glioblastoma cells); experiment: cAMP in glioblastoma cells, basal and VIP-stimulated
Text: The effects of VIP receptor antagonists on glioblastoma cell lines were investigated.

[2] = test system: NCI-H727 non-small cell lung cancer (carcinoid); experiment: MTS cell proliferation assay, SNH and chemotherapy; settings: 8 μM SNH, 6 hour incubation, then 66 hour fresh medium
Procedure: NCI-H727 and LNCaP were grown in RPMI 1640 medium supplemented with 10% heat inactivated FCS, L-glutamine and antibiotics. HT-29 and CT-26 were grown in DMEM medium supplemented with 10% heat-inactivated FCS (fetal calf serum), L-glutamine and antibiotics. The cells were cultured in 5% CO2/95% air at […] and used during their exponential growth phase. Routinely, the cells which are adherent, were split when a subconfluent monolayer was formed. In different experiments, various concentration of FCS were used. For growth inhibition experiments, subconfluent adherent cells were washed with PBS and treated with trypsin/versene. The cells were pelleted and resuspended in medium to a final concentration of 75,000 cells/mL for NCI-H727. 50,000 cells/mL for LNCaP and HT-29 and 25000 cells/mL for CT-26. These different concentrations were used in order to avoid confluence in the wells at the end of the experiment and correspond to the different doubling times of the cell lines. On day 0, cells suspensions […] were dispensed using a multi-channel pipet into the individual wells of a 96-well tissue culture plate (Nuncion, Nunc Brand Products). […] Cells were incubated for 24 hours in a humidified atmosphere of 95% air/5% CO2 at 37° C. before treatment. On day 1, the cells were treated with different drugs and schedules and maintained under the same conditions. On day 4, viable cell number was determined by a modified MTT assay i.e., MTS non-radioactive cell proliferation assay (Promega). […] Results were finally expressed as percentage of the control, which was obtained from the samples with no drug treatment. Dose-response curves were plotted using a Sigma-Plot software and statistically analyzed using Student test. To determine the effect of the lipophilic VIP antagonist SNH on cell proliferation, cells plated in 96-well microplates for 24 hours as described, were treated with various concentrations of SNH. The peptide was diluted in PBS and […] of the peptide solution was added to each well for a final concentration of the peptide between 10^−510^−9 M. The solvent was added to the control wells. […] A dose-response curve was obtained at concentrations ranging from 2 μM-10 μM (see, FIG. 2). […] The effects of an 8 hours treatment were slightly less, showing that most of the effect is in the initial hours of exposure and much more dose than time dependent. […] For the experiments with the combinations of VIP antagonists and chemotherapeutic agents, on day 0, the cells were plated for 24 hours in medium supplemented with 5% FCS. On day 1, the peptide was added to the wells followed 1 hour later by the chemotherapeutic agents. […] The chemotherapeutic drugs were tested over 7 concentrations, covering as much as possible of the dose response curve of each individual drug. 24 hours later, the medium was exchanged and the cells incubated under the same conditions for another 48 hours. On day 4 the number of viable cells was determined by MTS assay.

MCF-7 cells = experiment: MTT colorimetric assay, breast cancer cells (Example 6); settings: compared with VIPhyb
Procedure: The ability of VIP receptor antagonists to alter the growth of breast cancer cells was investigated in vitro using the MTT colorimetric. The semiautomated MTT assay measures reduction of a tetrazolium compound by tumor cells to formazan. The optical density at 570 nm was determined for 8 wells at each inhibitor concentration. Seeding densities were 5×10^4 cells/well and cells were grown in 96 well plates for 5 days.

SMILES: CCCCCCCCCCCCCCCCCC(=O)N[C@@H](CCCCN)C(=O)N1CCC[C@H]1C(=O)N[C@@H](CCCNC(=N)N)C(=O)N[C@@H](CCCNC(=N)N)C(=O)N1CCC[C@H]1C(=O)N[C@@H](Cc1ccc(O)cc1)C(=O)N[C@H](C(=O)N[C@@H](CC(=O)O)C(=O)N[C@@H](CC(N)=O)C(=O)N[C@@H](Cc1ccc(O)cc1)C(=O)N[C@H](C(=O)N[C@@H](CCCNC(=N)N)C(=O)N[C@@H](CC(C)C)C(=O)N[C@@H](CCCNC(=N)N)C(=O)N[C@@H](CCCCN)C(=O)N[C@@H](CCC(N)=O)C(=O)N[C@@H](CCCC)C(=O)N[C@@H](C)C(=O)N[C@H](C(=O)N[C@@H](CCCCN)C(=O)N[C@@H](CCCCN)C(=O)N[C@@H](Cc1ccc(O)cc1)C(=O)N[C@@H](CC(C)C)C(=O)N[C@@H](CC(N)=O)C(=O)N[C@@H](CO)C(=O)N[C@H](C(=O)N[C@@H](CC(C)C)C(=O)N[C@@H](CC(N)=O)C(N)=O)[C@@H](C)CC)C(C)C)[C@@H](C)O)[C@@H](C)O [SNH] (Stearoyl-KPRRPYTDNYTRLRKQ[Nle]AVKKYLNSILN-NH2)
- order of peptide potency, inhibition of VIP-stimulated cAMP ([1]; 10 nM VIP): (SN)VIPhybrid>VIP hybrid >PTC4495
- effect on basal cAMP ([1]; 1 μM): no effect
- inhibition of the increase in cAMP caused by 10 nM VIP ([1]; 1 μM, 10 nM VIP): strongly inhibited
- reduction in viable cells [2]: 40%
- relative potency as inhibitor of proliferation (MCF-7 cells): more potent inhibitor than VIPhyb
